{
  "source": "patent US6737383B1",
  "about": "“Herbicidal oxadiazolidines” (priority 1999, dated 2004)",
  "key": {"bedstraw": {"tested_on": "bedstraw", "assay": "Test B pre/postemergence bedstraw", "type": "in vivo, Galium aparine", "in_short": "(§1)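 Test chemicals in a non-phytotoxic solvent mixture with surfactant were sprayed preemergence onto planted seeds and postemergence onto plants 2 to 18 cm tall (1- to 4-leaf stage). After twelve to sixteen days in a greenhouse, injury was visually rated against untreated controls from 0 (no effect) to 10 (complete control).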"}, "blackgrass": {"tested_on": "blackgrass", "assay": "Test B pre/postemergence blackgrass", "type": "in vivo, Alopecurus myosuroides", "in_short": "as §1"}, "surinam grass": {"tested_on": "surinam grass", "assay": "Test B pre/postemergence surinam grass", "type": "in vivo, Brachiaria decumbens", "in_short": "as §1"}, "cocklebur": {"tested_on": "cocklebur", "assay": "Test B pre/postemergence cocklebur", "type": "in vivo, Xanthium strumarium", "conditions": "for Cocklebur plant response rating: scale of 0 to 10 where 0 is no effect and 10 is complete control", "in_short": "as §1"}, "corn": {"tested_on": "corn", "assay": "Test B pre/postemergence corn", "type": "in vivo, Zea mays", "conditions": "for Corn plant response rating: scale of 0 to 10 where 0 is no effect and 10 is complete control", "in_short": "as §1"}, "crabgrass": {"tested_on": "crabgrass", "assay": "Test B pre/postemergence crabgrass", "type": "in vivo, Digitaria sanguinalis", "conditions": "for Crabgrass plant response rating: scale of 0 to 10 where 0 is no effect and 10 is complete control", "in_short": "as §1"}, "giant foxtail": {"tested_on": "giant foxtail", "assay": "Test B pre/postemergence giant foxtail", "type": "in vivo, Setaria faberii", "conditions": "for Giant foxtail plant response rating: scale of 0 to 10 where 0 is no effect and 10 is complete control", "in_short": "as §1"}, "morningglory": {"tested_on": "morningglory", "assay": "Test B pre/postemergence morningglory", "type": "in vivo, Ipomoea hederacea", "in_short": "as §1"}, "[1]": {"conditions": "Postemergence, Rate 125 g/ha, scale 0 to 10, 0 is no effect, 10 is complete control"}, "[2]": {"conditions": "Preemergence, Rate 62 g/ha, scale of 0 to 10 where 0 is no effect and 10 is complete control"}, "[3]": {"conditions": "Preemergence, Rate 250 g/ha, scale of 0 to 10 where 0 is no effect and 10 is complete control"}, "[4]": {"conditions": "Preemergence, Rate 500 g/ha, scale of 0 to 10 where 0 is no effect and 10 is complete control"}, "[5]": {"conditions": "Rate 62 g/ha, Postemergence, scale of 0 to 10 where 0 is no effect and 10 is complete control"}, "[6]": {"conditions": "Rate 250 g/ha, Postemergence, scale of 0 to 10 where 0 is no effect and 10 is complete control"}, "[7]": {"conditions": "Rate 500 g/ha, Postemergence, scale 0 to 10, 0 no effect, 10 complete control"}},
  "data": [
    {"smiles": "CC(C)N(C(=O)n1oc(=O)n(C2CCCCCC2)c1=O)c1ccc(Cl)cc1", "note": "[Compound 339]", "values": [
      {"measurement": "Plant response rating, Bedstraw", "setting": "bedstraw; [1]", "result": 2},
      {"measurement": "Bedstraw plant response rating", "setting": "bedstraw; [2]", "result": 0},
      {"measurement": "Bedstraw plant response rating (0 to 10 scale)", "setting": "bedstraw; Preemergence, Rate 125 g/ha", "result": 0},
      {"measurement": "Bedstraw plant response rating", "setting": "bedstraw; [3]", "result": 0},
      {"measurement": "Bedstraw plant response rating", "setting": "bedstraw; [4]", "result": 0},
      {"measurement": "Bedstraw plant response rating", "setting": "bedstraw; [5]", "result": 0},
      {"measurement": "Plant response rating, Bedstraw", "setting": "bedstraw; [6]", "result": 7},
      {"measurement": "Plant response rating, Bedstraw", "setting": "bedstraw; [7]", "result": 8},
      {"measurement": "Plant response rating, Blackgrass", "setting": "blackgrass; [1]", "result": 0},
      {"measurement": "Blackgrass plant response rating", "setting": "blackgrass; [2]", "result": 0},
      {"measurement": "Blackgrass plant response rating (0 to 10 scale)", "setting": "blackgrass; Preemergence, Rate 125 g/ha", "result": 0},
      {"measurement": "Blackgrass plant response rating", "setting": "blackgrass; [3]", "result": 2},
      {"measurement": "Blackgrass plant response rating", "setting": "blackgrass; [4]", "result": 3},
      {"measurement": "Blackgrass plant response rating", "setting": "blackgrass; [5]", "result": 0},
      {"measurement": "Plant response rating, Blackgrass", "setting": "blackgrass; [6]", "result": 0},
      {"measurement": "Plant response rating, Blackgrass", "setting": "blackgrass; [7]", "result": 2},
      {"measurement": "Plant response rating, B. signalgrass", "setting": "surinam grass; [1]", "result": 0},
      {"measurement": "B. signalgrass plant response rating", "setting": "surinam grass; [2]", "result": 0},
      {"measurement": "B. signalgrass plant response rating (0 to 10 scale, 0 is no effect, 10 is complete control)", "setting": "surinam grass; Preemergence, Rate 125 g/ha", "result": 0},
      {"measurement": "B. signalgrass plant response rating", "setting": "surinam grass; [3]", "result": 0},
      {"measurement": "B. signalgrass plant response rating", "setting": "surinam grass; [4]", "result": 0},
      {"measurement": "B. signalgrass plant response rating", "setting": "surinam grass; [5]", "result": 0},
      {"measurement": "Plant response rating, B. signalgrass", "setting": "surinam grass; [6]", "result": 0},
      {"measurement": "Plant response rating, B. signalgrass", "setting": "surinam grass; [7]", "result": 0},
      {"measurement": "Plant response rating, Cocklebur", "setting": "cocklebur; [1]", "result": 0},
      {"measurement": "Cocklebur plant response rating", "setting": "cocklebur; Preemergence, Rate 62 g/ha", "result": 0},
      {"measurement": "Cocklebur plant response rating (0 to 10 scale)", "setting": "cocklebur; Preemergence, Rate 125 g/ha", "result": 0},
      {"measurement": "Cocklebur plant response rating", "setting": "cocklebur; Preemergence, Rate 250 g/ha", "result": 0},
      {"measurement": "Cocklebur plant response rating", "setting": "cocklebur; Preemergence, Rate 500 g/ha", "result": 0},
      {"measurement": "Cocklebur plant response rating", "setting": "cocklebur; Rate 62 g/ha, Postemergence", "result": 0},
      {"measurement": "Plant response rating, Cocklebur", "setting": "cocklebur; [7]", "result": 0},
      {"measurement": "Plant response rating, Corn", "setting": "corn; [1]", "result": 0},
      {"measurement": "Corn plant response rating", "setting": "corn; Preemergence, Rate 62 g/ha", "result": 0},
      {"measurement": "Corn plant response rating (0 to 10 scale)", "setting": "corn; Preemergence, Rate 125 g/ha", "result": 0},
      {"measurement": "Corn plant response rating", "setting": "corn; Preemergence, Rate 250 g/ha", "result": 0},
      {"measurement": "Corn plant response rating", "setting": "corn; Preemergence, Rate 500 g/ha", "result": 0},
      {"measurement": "Corn plant response rating", "setting": "corn; Rate 62 g/ha, Postemergence", "result": 0},
      {"measurement": "Plant response rating, Corn", "setting": "corn; [7]", "result": 0},
      {"measurement": "Plant response rating, Crabgrass", "setting": "crabgrass; [1]", "result": 0},
      {"measurement": "Crabgrass plant response rating", "setting": "crabgrass; Preemergence, Rate 62 g/ha", "result": 0},
      {"measurement": "Crabgrass plant response rating (0 to 10 scale)", "setting": "crabgrass; Preemergence, Rate 125 g/ha", "result": 0},
      {"measurement": "Crabgrass plant response rating", "setting": "crabgrass; Preemergence, Rate 250 g/ha", "result": 2},
      {"measurement": "Crabgrass plant response rating", "setting": "crabgrass; Preemergence, Rate 500 g/ha", "result": 5},
      {"measurement": "Crabgrass plant response rating", "setting": "crabgrass; Rate 62 g/ha, Postemergence", "result": 0},
      {"measurement": "Plant response rating, Crabgrass", "setting": "crabgrass; [7]", "result": 2},
      {"measurement": "Plant response rating, Giant foxtail", "setting": "giant foxtail; [1]", "result": 0},
      {"measurement": "Giant foxtail plant response rating", "setting": "giant foxtail; Preemergence, Rate 62 g/ha", "result": 1},
      {"measurement": "Giant foxtail plant response rating (0 to 10 scale)", "setting": "giant foxtail; Preemergence, Rate 125 g/ha", "result": 3},
      {"measurement": "Giant foxtail plant response rating", "setting": "giant foxtail; Preemergence, Rate 250 g/ha", "result": 9},
      {"measurement": "Giant foxtail plant response rating", "setting": "giant foxtail; Preemergence, Rate 500 g/ha", "result": 10},
      {"measurement": "Giant foxtail plant response rating", "setting": "giant foxtail; Rate 62 g/ha, Postemergence", "result": 0},
      {"measurement": "Plant response rating, Giant foxtail", "setting": "giant foxtail; [7]", "result": 0},
      {"measurement": "Plant response rating, Morningglory", "setting": "morningglory; [1]", "result": 2},
      {"measurement": "Morningglory plant response rating", "setting": "morningglory; [2]", "result": 0},
      {"measurement": "Morningglory plant response rating (0 to 10 scale)", "setting": "morningglory; Preemergence, Rate 125 g/ha", "result": 0}
    ]}
  ]
}
